Measurements from patent US20200199170A1, “COMPOUNDS HAVING ANTI-INFLAMMATORY AND ANTI-OXIDANT ACTIVITY” (UNIVERSITÀ DEGLI STUDI DI FERRARA, priority 2015, published 2020).

Tests used:
[1] = test system: IL-1α gene expression in human keratinocytes; assay: Real-time PCR quantification of gene expression in TNF-α stimulated keratinocytes; type: cell-based; conditions: keratinocytes pre-treated with compound, then TNF-α; FIG. 1B
Description: (§1) The cells (human keratinocytes acquired from Life Technologies) have been pretreated for 24 hours with 1A or 1B and subsequently stimulated with cytokines, otherwise referred to as Tumor Necrosis Factor, TNF-α, in order to mimic an inflammatory process.
The cell response has also been set out by means of real-time PCR measurements, which are intended to quantify the gene expression (the production of IL-1α is an activity that is codified by specific genes). In FIG. 1B, the so-called “control” is the response of the non-stimulated cells (absence of inflammatory process), “TNF-α” is the response of the cells stimulated with cytokine, while “1A+TNF-α” and “1B+TNF-α” are the responses obtained with the cells pre-treated with 1A and 1B, respectively.

[2] = test system: cell production of interleukin-1 (IL-1α) in human keratinocytes stimulated with TNF-α; assay: Anti-inflammatory activity: IL-1α production in keratinocytes stimulated with TNF-α; type: cell-based; conditions: human keratinocytes pretreated 24 hours with 10 μM solution, then TNF-α; negative control DMSO; FIG. 1A
Description: as §1
TNF-α induces inflammation in the cells treated, that is to say, the cell production of interleukin-1 (IL-1α).

[3] = Photochemiluminescence antioxidant test (Photochem, luminol); conditions: superoxide radical, FIG. 2
Description: For the study of the antioxidant activity, use was made of a photochemiluminescence test that allows evaluating the antioxidant capacity of the tested molecules with respect to the superoxide radical (O2^−); the latter is photochemically generated by means of UV radiations. The marker used is luminol, a molecule that is capable of emitting chemiluminescence when it is oxidized by free radicals; such emission of light is then measured by means of a suitable instrument (Analityk Jena AG: Photochem®—Antioxidants and Free Radicals). The presence of antioxidant substances in the reaction admixture deactivates the radical species by inhibiting the emission of chemiluminescence. The analysis is very rapid and sensitive. […]
Since the antioxidant activity cannot be measured in absolute terms, the common practice is to compare the activity of a compound with that of molecules having an antioxidant capacity that is already known, such as, for example, tocopherol (otherwise known as vitamin E). By comparing the recorded values with the measurements relating to the standard reference molecules ([…]), the antioxidant capacity of the product being examined is obtained.

neuronal cells = assay: Neuro-protective activity, MTT assay, glutamate-induced death; type: cell-based; conditions: FIG. 3; for neuro-protective activity on the death of neuronal cells caused by glutamate: MTT assay, pre-treatment before glutamate; for viability of the cells: neuronal cells, pre-treatment with compound then glutamate, MTT

Cc1ccc(O)c2c1CCC1C3CC[C@](O)(C(O)CO)[C@@]3(C)CC(=O)[C@@]21O (stereo partly shown) [1B]
gene expression (real-time PCR) [1]: absence of gene expression | cell production of IL-1α [2]: comparable with that of the negative control | moles having the antioxidant activity of 1 mole of ascorbic acid [3]: 1.18 mol | neuro-protective activity on the death of neuronal cells caused by glutamate (neuronal cells): have a neuro-protective activity | viability of the cells (neuronal cells): ~80%

Cc1ccc(O)c2c1CCC1C3CC[C@](O)(C(=O)CO)[C@@]3(C)CC(=O)[C@@]21O (stereo partly shown) [1A]
gene expression (real-time PCR) [1]: absence of gene expression | cell production of IL-1α [2]: comparable with that of the negative control | moles having the antioxidant activity of 1 mole of ascorbic acid [3]: 1.09 mol | neuro-protective activity on the death of neuronal cells caused by glutamate (neuronal cells): have a neuro-protective activity | viability of the cells (neuronal cells): ~80%
